The values that follow come from publication PMC4171606, “A novel copper(I) complex induces ER-stress-mediated apoptosis and sensitizes B-acute lymphoblastic leukemia cells to chemotherapeutic agents” (Oncotarget, 2014).

What all share (assay type): cell-based, human
In data set [1] the test system is Bone marrow cells from healthy donors. Put plainly: Annexin-V-FITC/PI viability by flow cytometry, 24 h. Conditions: CP 2.5 μM and 5 μM. How it is done:
CP growth inhibitory activity was measured on primary cultures derived from pediatric patients affected by B-acute lymphoblastic leukemia. […] In particular, in resting and in PHA-stimulated PBMC, and in CD19^+ cells GI50 was higher than 10 μM confirming that CP preferentially affects leukemia cells.
FIGURE 6 CP effects on B-ALL primary cultures (A) Blast cells from six B-ALL patients were incubated for 24 h with different concentrations of CP. For the sake of comparison CD19^+ cells from peripheral blood of healthy donors, and PBMC were also incubated with CP in the presence or absence of PHA. Cell viability were assayed by MTT analysis. Data are represented as mean ± S.E.M of four independent experiments. (B) Bone marrow cells from healthy donors were treated for 24 h with CP (2.5 μM and 5 μM). Cell viability was evaluated on the whole population by flow cytometry after staining the cells with Annexin-V-FITC and PI. are represented as mean ± S.E.M of 3 independent experiments. […]
Surface exposure of PS by apoptotic cells was measured by flow cytometry with a Coulter Cytomics FC500 (Beckmann Coulter, USA) by adding Annexin V-FITC and propidium iodide (PI) to cells according to the manufacturer's instructions (Annexin-V Fluos, Roche Diagnostic, Italy).
Background: In flow cytometry, cells or beads pass a laser one at a time.

The test system of data set [2] is RS4;11 and SEM cells. Put plainly: Mitochondrial transmembrane potential, JC-1. Conditions: CP 2.5 μM. The method, then:
(§1) To determine whether the apoptotic stimuli involved mitochondria alteration, we examined the mitochondrial transmembrane potential (ΔΨmt) by means of the fluorescence dye JC-1.
(§2) FIGURE 2 CP induces caspase-dependent apoptosis without mitochondria involvement (A) Assessment of mitochondrial membrane potential (ΔΨmt) after treatment of RS4;11 and SEM cells with CP (2.5 μM) for the indicated times. Cells were stained with the fluorescent probe JC-1. Data are represented as mean ± S.E.M. of three independent experiments. (B) Flow cytometric analysis of RS4;11 and SEM cells treated with CP (2.5 μM) for 24 h showing cytochrome c labeled with a monoclonal antibody conjugated to FITC. Representative image of three experiments with similar results. (C) Cells were incubated with CP 2.5 μM and 5 μM in the presence or absence of the pan-caspase inhibitor z-VAD.fmk (100 μM). Cell viability was determined after 48 h by MTT assay. […]
(§3) The mitochondrial membrane potential was measured with the lipophilic cation 5,5',6,6'-tetrachlo-1,1',3,3'-tetraethylbenzimidazolyl-carbocyanine (JC-1) (Life Technologies, Italy) as previously described. Cytochrome c release was analyzed by flow cytometry using a commercial kit (Innocyte flow cytometric cytochrome c release kit, Calbiochem, Italy) following the manufacturer's instructions.

Data set [3] has as its system RS4;11 and SEM cells. Put plainly: Cytochrome c release by flow cytometry. Conditions: CP 2.5 μM, 24 h. How it is done:
as §1, §2, §3

A further data set concerns ubiquitinated proteins. As to the kind of experiment: Western blot, Ubiquitin accumulation. The method, then:
FIGURE 3 CP treatment affects Ubiquitin Proteasome System (UPS) 26S proteasome (100 μg) semipurified from (A) SEM and (B) RS4;11 cells was incubated for 60 min at 37 °C with CP at different concentrations. Chymotrypsin (CT), trypsin (T) and peptidyl glutamyl peptide hydrolyzing (PGPH) catalytic activity were measured fluorimetrically (excitation 370, nm emission 460) by following the release of free AMC from synthetic substrates N-Suc-Leu-Leu-Val-Tyr-AMC, Boc-Gln-Ala-Arg-AMC and Z-Leu-Leu-Glu-AMC, specific for CT, T and PGPH activity, respectively. (C) Cells were incubated with CP 2.5 μM for the indicated times and then western blot analyses were performed to evaluate Ubiquitin accumulation.
In normal conditions, misfolded proteins in the ER are driven to the cytoplasm, where upon ubiquitination, are degraded by the proteasome system. […] To assess if CP worked as other proteasome inhibitors, we evaluated the accumulation of ubiquitin after 1.5, 3, and 6 h of treatment.
Cells were treated with CP and, after different times, were collected, centrifuged and washed with ice cold phosphate-buffered saline (PBS). The pellet was then resuspended in lysis buffer as described. The protein concentration in the supernatant was determined using the BCA protein assay (Pierce, Italy). […]
(A western blot detects proteins with antibodies after separation by electrophoresis.)

The structures appear in SMILES notation.

Regarding `F[P-](F)(F)(F)(F)F.OCP(CO)CO.OCP(CO)CO.OCP(CO)CO.OCP(CO)CO.[Cu+]` [CP, [Cu(thp)4][PF6]], in data set [1], the “viability of lymphocyte and monocyte populations” value is listed as “did not affect the viability”. Besides, in the data set with RS4;11 and SEM cells [2], the “percentage of cells with low ΔΨmt” value is reported as “slightly increased, only after 12 h”. Further, the cytochrome c release entry in the data set on RS4;11 and SEM cells [3] is “did not reveal cytochrome c release”. Further, the “onset of accumulation of ubiquitinated proteins” value is not below 3 h in the data set on ubiquitinated proteins (RS4;11, CP 2.5 μM) and not below 1.5 h in the data set on ubiquitinated proteins (SEM, CP 2.5 μM).
